According to patent publication US10676468B2, “N-(3-heteroarylaryl)-4-arylarylcarboxamides and analogs as hedgehog pathway inhibitors and use thereof” (IMPACT Therapeutics, Inc., priority 2012, dated 2020):

Legend:
[1] = system: Hedgehog Signaling Pathway; assay: SHH-induced differentiation of C3H10T1/2 cells into osteoblastic cells, intracellular alkaline phosphatase activity; assay type: cell-based, mouse; conditions: Mus musculus, C3H 10T1/2, 120 h, 10 nM SHH-N, 5 days, alkaline phosphatase activity (OD405), read-out: IC50 values of compounds that inhibit Hh pathway
Method: (§1) The Application of SHH to Induce Pluripotent Mesenchymal Mouse Embryonic Cell C3H10T1/2 to Differentiate into Osteoblastic Cells for the Determination of the Inhibitory Activity of N-(3-(1H-benzo[d]imidazol-2-yl)-4-chlorophenyl)-2-methyl-4-((2S,6R)-2,6-dimethylmorpholino)benzamide and Analogs on Hedgehog Signaling Pathway
The C3H10T1/2 cells were grown in DMEM medium supplemented with 10% fetal bovine serum (FBS, Hyclone) at 37° C. with 5% CO2. 10000 cells were sown to each well of a 96-well microplate a day before the experiment and grown overnight. […] The reference compound and testing compounds were serially diluted 1 to 3 and 1 to 10 in DMSO to seven concentrations with the eighth concentration being DMSO. A 10-fold dilution was prepared by mixing 10 μL of the DMSO dilutions with 90 μL of fresh growing medium. Pre-sown cells were taken out from incubator and the medium was removed. To each well, 180 μL of inducing medium containing 10 nM of SHH-N was added and followed immediately with 20 μL of 10× testing or reference compound dilutions. The testing compound concentrations are between 10 μM and 10 nM. The cells were then returned to CO2 incubator to grow additional 5 days at 37° C.
(§2) After incubating for 5 days, the cells were taken out and intracellular alkaline phosphatase activity was tested. The alkaline phosphatase activity was measured as follows:
3) Preparation of Substrate Solution:
(§3) Solution A: A 0.5 mM MgCl2 (Sigma Prod. No. M-0250) solution was prepared.
(§4) After the pH value was adjusted to 9.8 with 5 M HCl at 37° C., the total volume was adjusted to 100 mL.
(§5) After it is completely dissolved the total volume was adjusted to 10 mL with the final concentration being 1 mM.
Substrate reaction medium: to 10 mL of solution B, 250 μL of solution A and 200 μL of solution C were added, and mixed well.
4) The Measurement of Intracellular Alkaline Phosphatase Activity:
(§6) After taking out the cells from the incubator, the cell culture medium was removed and cells were washed twice with PBS. 20 μL of lysis solution (0.2% Triton solution) was added to each well. After being shaken for 30 min at room temperature, each well of cells received 80 μL of substrate reaction medium. The microplate was placed immediately into a VariSkan Flashplate reader and absorbance at OD405 was read as background reading. The plate was replaced back to cell culture incubator at 37° C. for additional 30 min and the absorbance was read again using VariSkan Flash plate reader at OD405.
(§7) The data were analyzed by subtracting the background reading from the reading at 30 min, and the obtained numbers were plotted and analyzed with Prism 5 software (GraphPad). The phosphatase activity (calculated OD405) was plotted against the log concentration of testing compound, and the obtained plot was fitted with non-linear curve fitting equation to calculate IC50 values. The curve fitting equation is Y=Bottom+(Top−Bottom)/(1+10^(X−Log IC50)). X is the logarithm of concentration. Y is the measure of alkaline phosphatase activity (OD405).
(§8) The calculated IC50 value is a measurement of the inhibitory activity of compound to Hh pathway.

[2] = system: Hedgehog Signaling Pathway; assay: SAG-induced differentiation of C3H10T1/2 cells into osteoblastic cells, intracellular alkaline phosphatase activity; assay type: cell-based, mouse; conditions: Mus musculus, C3H 10T1/2, 120 h, 1 μM SAG, 5 days, alkaline phosphatase activity (OD405), read-out: IC50 values of compounds that inhibit Hh pathway
From the text: as §1, with “SAG” for “SHH”, “C3H/10T1/2” for “C3H10T1/2”
The intracellular alkaline phosphatase activity is a reliable indication of the differentiation process. Therefore this enzymatic activity can be used to monitor the activity of hedgehog pathway inhibitors.
The C3H10T1/2 cells were grown in DMEM medium supplemented with 10% fetal bovine serum (FBS, Hyclone) at 37° C. with 5% CO2. 10000 cells were sown to each well of a 96-well microplate a day before the experiment and grown overnight. At the day of experiment, the inducing medium and inhibitor solutions were prepared as follows: the reference compound and testing compounds were serially diluted 1 to 3 and 1 to 10 in DMSO to seven concentrations with the eighth concentration being DMSO. A 10-fold dilution was prepared by mixing 10 μL of the DMSO dilution with 90 μL of fresh growing medium. […] Pre-sown cells were taken out from incubator and the medium was removed. To each well, 180 μL inducing medium was added and followed immediately with 20 μL of testing or reference compound dilutions. The testing compound concentrations are between 10 μM and 1 nM. The cells were then return to CO2 incubator to grow additional 5 days at 37° C.
as §2
1) Preparation of Substrate Solution:
as §3, §4, §5
Substrate reaction medium: To 10 mL of solution B, 250 μL of solution A and 200 μL of solution C were added, and mixed well.
2) the Measurement of Intracellular Alkaline Phosphatase Activity:
as §6
as §7, with “Y=Bottom+(Top−Bottom)/(1+10^((X−Log IC50))).” for “Y=Bottom+(Top−Bottom)/(1+10^(X−Log IC50)).”
as §8

Cc1cc(-c2ccccc2)ccc1C(=O)Nc1ccc(Cl)c(-c2nc3ccccc3[nH]2)c1 [Example 2, N-(3-(1H-benzo[d]imidazol-2-yl)-4-chlorophenyl)-3-methylbiphenyl-4-carboxamide] was tested, and the IC50 [1] was 14 nM and the IC50 [2] was 74 nM.

Work on COc1ccc(-c2ccc(C(=O)Nc3ccc(Cl)c(-c4nc5ccccc5[nH]4)c3)c(C)c2)cc1 [Example 3, N-(3-(1H-benzo[d]imidazol-2-yl)-4-chlorophenyl)-3-methyl-4′-methoxybiphenyl-4-carboxamide] yielded an IC50 [1] of 39 nM and an IC50 [2] of 111 nM.

Compound Cc1cc(-c2ccc(F)cc2)ccc1C(=O)Nc1ccc(Cl)c(-c2nc3ccccc3[nH]2)c1 [Example 4, N-(3-(1H-benzo[d]imidazol-2-yl)-4-chlorophenyl)-3-methyl-4′-fluorobiphenyl-4-carboxamide] has an IC50 [1] of 7.8 nM and an IC50 [2] of 86 nM.

Cc1cc(-c2ccc(S(C)(=O)=O)cc2)ccc1C(=O)Nc1ccc(Cl)c(-c2nc3ccccc3[nH]2)c1 [Example 5, N-(3-(1H-benzo[d]imidazol-2-yl)-4-chlorophenyl)-3-methyl-4′-(methylsulfonyl)biphenyl-4-carboxamide] gave an IC50 [1] of 5.9 nM and an IC50 [2] of 26 nM.

CC(=O)c1ccc(-c2ccc(C(=O)Nc3ccc(Cl)c(-c4nc5ccccc5[nH]4)c3)c(C)c2)cc1 [Example 9, N-(3-(1H-benzo[d]imidazol-2-yl)-4-chlorophenyl)-3-methyl-4′-acetylbiphenyl-4-carboxamide] showed an IC50 [1] of 43 nM and an IC50 [2] of 156 nM.

Cc1cc(-c2cccc(F)c2)ccc1C(=O)Nc1ccc(Cl)c(-c2nc3ccccc3[nH]2)c1 [Example 10, N-(3-(1H-benzo[d]imidazol-2-yl)-4-chlorophenyl)-3-methyl-3′-fluorobiphenyl-4-carboxamide] was tested, and the IC50 [1] was 6.3 nM and the IC50 [2] was 74 nM.

In the case of Cc1cc(-c2cccc(C#N)c2)ccc1C(=O)Nc1ccc(Cl)c(-c2nc3ccccc3[nH]2)c1 [Example 11, N-(3-(1H-benzo[d]imidazol-2-yl)-4-chlorophenyl)-3-methyl-3′-cyanobiphenyl-4-carboxamide], the IC50 [1] is reported as 1.7 nM and the IC50 [2] is reported as 31 nM.

In the case of O=C(Nc1ccc(Cl)c(-c2nc3ccccc3[nH]2)c1)c1ccc(-c2ccc(F)cc2)cc1 [Example 12, N-(3-(1H-benzo[d]imidazol-2-yl)-4-chlorophenyl)-4′-fluorobiphenyl-4-carboxamide], the IC50 [1] is reported as 18 nM and the IC50 [2] is reported as 153 nM.

O=C(Nc1ccc(Cl)c(-c2nc3ccccc3[nH]2)c1)c1ccc(-c2cccc(F)c2)cc1 [Example 13, N-(3-(1H-benzo[d]imidazol-2-yl)-4-chlorophenyl)-3′-fluorobiphenyl-4-carboxamide] showed an IC50 [1] of 14.6 nM and an IC50 [2] of 86 nM.

In the case of COc1cc(-c2ccc(C(F)(F)F)cc2)ccc1C(=O)Nc1ccc(Cl)c(-c2nc3ccccc3[nH]2)c1 [Example 15, N-(3-(1H-benzo[d]imidazol-2-yl)-4-chlorophenyl)-3-methoxy-4′-(trifluoromethyl)biphenyl-4-carboxamide], the IC50 [1] is reported as 40 nM and the IC50 [2] is reported as over 10000 nM.

O=C(Nc1ccc(Cl)c(-c2nc3ccccc3[nH]2)c1)c1ccc(-c2ccc(C(F)(F)F)cc2)cc1O [Example 16, N-(3-(1H-benzo[d]imidazol-2-yl)-4-chlorophenyl)-3-hydroxy-4′-(trifluoromethyl)biphenyl-4-carboxamide] showed an IC50 [1] of over 10000 nM and an IC50 [2] of over 10000 nM.

O=C(Nc1ccc(Cl)c(-c2nc3ccccc3[nH]2)c1)c1ccc(-c2ccc(C(F)(F)F)cc2)cc1F [Example 17, N-(3-(1H-benzo[d]imidazol-2-yl)-4-chlorophenyl)-3-fluoro-4′-(trifluoromethyl)biphenyl-4-carboxamide] was tested, and the IC50 [1] was 15 nM and the IC50 [2] was 81 nM.

O=C(Nc1ccc(Cl)c(-c2nc3ccccc3[nH]2)c1)c1ccc(-c2ccc(C(F)(F)F)cc2)cc1[N+](=O)[O-] [Example 19, N-(3-(1H-benzo[d]imidazol-2-yl)-4-chlorophenyl)-3-nitro-4′-(trifluoromethyl)biphenyl-4-carboxamide] was tested, and the IC50 [1] was 23 nM and the IC50 [2] was 161 nM.

In the case of Cc1cc(-c2ccc(C(F)(F)F)cc2)cc(C)c1C(=O)Nc1ccc(Cl)c(-c2nc3ccccc3[nH]2)c1 [Example 20, N-(3-(1H-benzo[d]imidazol-2-yl)-4-chlorophenyl)-3,5-dimethyl-4′-(trifluoromethyl)biphenyl-4-carboxamide], the IC50 [1] is reported as 59 nM and the IC50 [2] is reported as over 10000 nM.

O=C(Nc1ccc(Cl)c(-c2nc3ccccc3[nH]2)c1)c1ccc(-c2ccccc2)cc1 [Example 23, N-(3-(1H-benzo[d]imidazol-2-yl)-4-chlorophenyl) biphenyl-4-carboxamide] was tested, and the IC50 [1] was 24 nM and the IC50 [2] was 163 nM.

In the case of Cc1cc(-c2ccc(N)cc2)ccc1C(=O)Nc1ccc(Cl)c(-c2nc3ccccc3[nH]2)c1 [Example 24, N-(3-(1H-benzo[d]imidazol-2-yl)-4-chlorophenyl)-3-methyl-4′-aminobiphenyl-4-carboxamide], the IC50 [1] is reported as 62 nM and the IC50 [2] is reported as 255 nM.

For O=c1[nH]c2cc(-c3ccc(C(F)(F)F)cc3)ccc2c(=O)n1-c1ccc(Cl)c(-c2nc3ccccc3[nH]2)c1 [Example 26, 3-(3-(1H-benzo[d]imidazol-2-yl)-4-chlorophenyl)-7-(4-(trifluoromethyl)phenyl)quinazoline-2,4(1H,3H)-dione], the IC50 [1] was over 10000 nM and the IC50 [2] was over 10000 nM.

Compound O=c1c2ccc(-c3ccc(C(F)(F)F)cc3)cc2ncn1-c1ccc(Cl)c(-c2nc3ccccc3[nH]2)c1 [Example 27, 3-(3-(1H-benzo[d]imidazol-2-yl)-4-chlorophenyl)-7-(4-(trifluoromethyl)phenyl)quinazolin-4(3H)-one] has an IC50 [1] of 57 nM and an IC50 [2] of 151 nM.

O=C1c2ccc(-c3ccc(C(F)(F)F)cc3)cc2OCN1c1ccc(Cl)c(-c2nc3ccccc3[nH]2)c1 [Example 28, 3-(3-(1H-benzo[d]imidazol-2-yl)-4-chlorophenyl)-7-(4-(trifluoromethyl)phenyl)-2H-benzo[e][1,3]oxazin-4(3H)-one] showed an IC50 [1] of 59 nM and an IC50 [2] of 228 nM.

In the case of O=C1c2ccc(-c3ccccc3)cc2CCN1c1ccc(Cl)c(-c2nc3ccccc3[nH]2)c1 [Example 29, 2-(3-(1H-benzo[d]imidazol-2-yl)-4-chlorophenyl)-6-phenyl-3,4-dihydroisoquinolin-1(2H)-one], the IC50 [1] is reported as 72 nM and the IC50 [2] is reported as over 10000 nM.

Work on Cc1cc(N2CCOCC2)ccc1C(=O)Nc1ccc(Cl)c(-c2nc3ccccc3[nH]2)c1 [Example 30, N-(3-(1H-benzo[d]imidazol-2-yl)-4-chlorophenyl)-2-methyl-4-morpholinobenzamide] yielded an IC50 [1] of 31 nM and an IC50 [2] of 88 nM.
